Measurements taken from US6924309B2 (Children, Youth and Women's Health Service Incorporated, priority 1999, dated 2005).

Legend:
12-LO = molecular target: T1, 12-LO (Sus scrofa, UniProt P16469); experiment: Effect on 12-LO catalysed oxidation of arachidonic acid; assay type: biochemical, porcine
T1 construct: purchased Cayman Chemical Company
T1 sequence (P16469 1-663): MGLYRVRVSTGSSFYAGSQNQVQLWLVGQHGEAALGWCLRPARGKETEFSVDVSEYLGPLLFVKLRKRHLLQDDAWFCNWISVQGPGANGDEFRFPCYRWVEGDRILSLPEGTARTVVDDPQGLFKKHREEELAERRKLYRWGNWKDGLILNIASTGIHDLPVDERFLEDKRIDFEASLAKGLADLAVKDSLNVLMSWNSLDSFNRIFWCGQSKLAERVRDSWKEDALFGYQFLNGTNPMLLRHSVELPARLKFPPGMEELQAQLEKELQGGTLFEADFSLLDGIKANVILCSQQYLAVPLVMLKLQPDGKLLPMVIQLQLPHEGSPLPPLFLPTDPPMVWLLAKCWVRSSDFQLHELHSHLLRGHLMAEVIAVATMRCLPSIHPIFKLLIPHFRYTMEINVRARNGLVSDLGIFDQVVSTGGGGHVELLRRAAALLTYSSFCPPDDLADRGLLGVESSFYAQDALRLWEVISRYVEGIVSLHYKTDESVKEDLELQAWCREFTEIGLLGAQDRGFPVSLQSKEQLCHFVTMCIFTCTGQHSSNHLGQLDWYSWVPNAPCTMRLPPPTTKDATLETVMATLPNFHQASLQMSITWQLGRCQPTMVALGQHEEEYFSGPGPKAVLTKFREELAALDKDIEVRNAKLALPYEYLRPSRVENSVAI

human neutrophils = experiment: Neutrophil lucigenin dependent chemiluminescence (superoxide production); assay type: cell-based; settings: 20 μM
Protocol: The activation of human neutrophils by nitro compounds was assessed by the ability to stimulate superoxide production (chemiluminescence response) and release of lysosomal enzymes from specific and azurophilic granules. Neutrophils were prepared from whole blood taken from normal healthy volunteers by the rapid-single step procedure^(41). Briefly, blood anticoagulated with heparin was carefully layered on a hypaque-ficoll medium of 1.114 g/ml and centrifuged in swing-out-buckets at 200 g/30 min. The leukocytes were resolved into two bands and the erythrocytes sedimented at the bottom of the tube. The second leukocyte band approximately 0.7 cm from the mononuclear cell containing band at the interface contained neutrophils of >98% purity and >99% viability (trypan blue dye exclusion criteria). The neutrophils were carefully harvested with a pasteur pipette, and washed and resuspended in tissue culture medium. The respiratory burst response of neutrophils was assessed by measuring superoxide production by the lucigenin dependent chemiluminescence assay essentially as described previously^(42). Briefly, 1×10^6 neutrophils (100 μl) in HBSS were treated with the nitro analogues of fatty acids (100 μl), then lucigenin was added and the volume made up. FIG. 7 illustrates the effects of Lx compounds on the neutrophil chemiluminescence reponse. Results are the means ±SEM of 4-12 experiments. […]

15-LO [1] = molecular target: T2, 15-LO (Glycine max, UniProt P08170); experiment: 15-LO catalysed oxidation of the nitro compounds (substrate test); assay type: biochemical, soybean; settings: for Substrate for 15-LO: pH 9.0 buffer, UV 234 nm
T2 construct: purchased Sigma Chemical Company
T2 sequence (P08170 1-839): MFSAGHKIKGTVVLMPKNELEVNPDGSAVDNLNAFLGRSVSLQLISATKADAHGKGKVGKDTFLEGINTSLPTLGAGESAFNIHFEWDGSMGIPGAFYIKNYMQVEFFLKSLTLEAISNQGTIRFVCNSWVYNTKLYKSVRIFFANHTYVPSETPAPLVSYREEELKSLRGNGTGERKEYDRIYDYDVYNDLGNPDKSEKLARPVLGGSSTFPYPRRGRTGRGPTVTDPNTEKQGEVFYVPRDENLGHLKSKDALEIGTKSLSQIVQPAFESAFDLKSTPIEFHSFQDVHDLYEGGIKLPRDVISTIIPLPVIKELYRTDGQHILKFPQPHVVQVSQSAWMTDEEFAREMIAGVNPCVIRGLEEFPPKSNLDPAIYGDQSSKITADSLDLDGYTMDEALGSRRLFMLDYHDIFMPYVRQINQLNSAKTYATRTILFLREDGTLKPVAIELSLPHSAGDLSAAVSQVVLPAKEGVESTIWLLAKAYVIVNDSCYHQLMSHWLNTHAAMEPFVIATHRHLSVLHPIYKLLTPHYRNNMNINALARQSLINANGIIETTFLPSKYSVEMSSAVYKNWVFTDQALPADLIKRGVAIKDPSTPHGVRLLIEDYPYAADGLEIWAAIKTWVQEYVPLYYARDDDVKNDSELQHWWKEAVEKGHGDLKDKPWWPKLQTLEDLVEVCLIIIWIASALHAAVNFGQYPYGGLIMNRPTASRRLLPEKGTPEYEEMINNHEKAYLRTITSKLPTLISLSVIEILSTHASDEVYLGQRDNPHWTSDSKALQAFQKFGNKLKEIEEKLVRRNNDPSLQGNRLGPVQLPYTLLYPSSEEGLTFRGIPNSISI
Protocol: Based on this consideration, 5-LO, 12-LO and 15-LO catalysed oxidation of the nitro compounds (4a, 4b, 6a, 6b, 8a and 8b) was investigated. Each of the nitro compounds was treated with 15-LO in pH 9.0 buffer (or 5-LO in pH 6.3 buffer and 12-LO in pH 7.4 buffer), and the formation of 15-hydroperoxy derivatives (or 5-hydroperoxy or 12-hydroperoxy derivatives) over time was monitored by UV spectroscopy at 234 nm.

15-LO [2] = molecular target: T2, 15-LO; experiment: Effect on 15-LO catalysed oxidation of arachidonic acid; assay type: biochemical, soybean

CCCCC/C=C\C/C=C\C/C=C\C/C=C\CCCC(CCC(=O)O)[N+](=O)[O-] (centres unmarked) [Lx7, (a11-Z)-4-Nitrotricosa-8,11,14,17-tetraenoic acid]
Effect on 12-LO catalysed oxidation of AA (12-LO): Substrate | Neutrophil chemiluminescence response (human neutrophils): marginal compared to 20:4n-6 and 22:6n-3 | Vmax for 15-LO catalysed oxidation of the compound (15-LO [1]; Lineweaver Burke): Vmax = 24.48 μM/min | Vmax for 15-LO catalysed oxidation of the compound (15-LO [1]; Lineweaver Burke, listed as 6b): 24.48 µM/min | Km (15-LO [1]; Lineweaver Burke, read-out: Km for 15-LO catalysed oxidation of the compound): 8.4 µM | Substrate for 15-LO (15-LO [1]; listed as 6b): substrate | Substrate for 15-LO (15-LO [1]; listed as (all-Z)-4-nitrotricosa-8,11,14,17-tetraenoic acid): good substrate | Effect on 15-LO catalysed oxidation of AA (15-LO [2]): Substrate
